Measured values from patent US9777039B2, “Somatostatin analogs and dimers thereof” (Ipsen Pharma S.A.S., priority 2012, dated 2017).
Like-named read-outs stand apart in the source and are kept apart here. Residues, ends and D or L forms follow the SMILES beside them.

Experiments:
hSSTR3 = target: T1, hSSTR3 (Homo sapiens, UniProt P32745); test: Somatostatin receptor radioligand binding assay, hSSTR3; settings: CHO-K1 cell membranes, [125I-Tyr11]-SRIF-14; read-out: hSSTR3 Ki (nM) ± SEM
T1 construct: expressed in transfected cells; membranes
Description: (§1) The affinities of a test compound for the human somatostatin receptors were determined by radioligand binding assays in CHO-K1 cells stably transfected with each of the somatostatin receptor subtypes, hSSTR1-5. The cDNA coding sequences of the hSSTR1 (GenBank accession No. NM_001049.1), hSSTR2 (GenBank accession No. XM_012697.1), hSSTR3 (GenBank accession No. XM_009963.1), hSSTR4 (GenBank accession No. NM_001052.1) and hSSTR5 (GenBank accession No. XM_012565.1) were subcloned into the mammalian expression vector pcDNA3.1 (Life Technologies). Clonal cell lines stably expressing each of the somatostatin receptors were obtained by transfection into CHO-K1 cells (ATCC) and subsequently selected with culture media containing 0.8 mg/mL of G418 (Life Technologies).
(§2) Membranes for in vitro receptor binding assays were obtained by the following procedures. CHO-K1 cells expressing one of the somatostatin receptors were homogenized in ice-cold buffer with 10 mM Tris-HCl, 5 mM EDTA, 3 mM EGTA, 1 mM phenylmethylsuphonyl fluoride, pH 7.6, using Polytron PT10-35GT (Kinematica) at 18,000 rpm for 30 seconds and centrifuged at 500×g for 10 minutes. The supernatant containing the plasma membranes was centrifuged at 100,000×g for 30 minutes and the pellet was resuspended in buffer containing 20 mM glycine-glycine, 1 mM MgCl2, 250 mM sucrose, pH 7.2, for storage at −80° C. […]

hSSTR2 [1] = target: T2, hSSTR2 (Homo sapiens, UniProt P30874); test: Intracellular calcium mobilization assay (FLIPR Calcium 4 assay kit); format: cell-based; settings: for Emax: maximal effect in percentage of the maximal effect of SRIF-14, read-out: hSSTR2 % Emax ± SEM
T2 construct: expressed in transfected cells
Description: The ability of select compounds according to the present invention to activate hSSTR2 was determined by the intracellular calcium mobilization assay using FLIPR Calcium 4 assay kit (Molecular Devices).
Cells expressing hSSTR2 were plated in 384-well microplates in tissue culture media and incubated for 16-24 hours at 37° C. in a humidified atmosphere with 5% CO2. Medium was replaced by loading buffer containing Hank's buffered saline, 20 mM HEPES, 2.5 mM probenecid and Calcium 4 dye, and the plates were incubated at 37° C. for 60 minutes. Various concentrations of the test compounds were applied to the cells during the fluorescence measurement with excitation at 485 nm and emission at 525 nm using the Flexstation III microplate reader (Molecular Devices).
The half maximal effective concentrations (EC50) were calculated by fitting data to sigmoid dose-response curves using GraphPad Prism version 5.03 (GraphPad Software, San Diego, Calif., USA). % Emax values represent the maximal effect of the test compound in percentage of the maximal effect of SRIF-14.
Reference Compound No. A, whose chemical name and corresponding structure are provided in Table V, was synthesized and its ability to activated hSSTR2 was determined by the same intracellular calcium mobilization assays using FLIPR Calcium 4 assay kit (Molecular Devices) and under the same experimental conditions for the test compounds, as described hereinabove, and the results thereof are provided in Table VI.

hSSTR1 = target: T3, hSSTR1 (Homo sapiens, UniProt P30872); test: Somatostatin receptor radioligand binding assay, hSSTR1; settings: CHO-K1 cell membranes, [125I-Tyr11]-SRIF-14; read-out: hSSTR1 Ki (nM) ± SEM
T3 construct: expressed in transfected cells; membranes
Description: as §1, §2

hSSTR5 = target: T4, hSSTR5 (Homo sapiens, UniProt P35346); test: Somatostatin receptor radioligand binding assay, hSSTR5; settings: CHO-K1 cell membranes, [125I-Tyr]-DPhe-cyclo(Cys-Tyr-DTrp-Lys-Val-Cys)-Thr-NH2; read-out: hSSTR5 Ki (nM) ± SEM
T4 construct: expressed in transfected cells; membranes
Description: as §1, §2

hSSTR2 [2] = target: T2, hSSTR2; test: Somatostatin receptor radioligand binding assay, hSSTR2
Description: as §1
Membranes for in vitro receptor binding assays were obtained by the following procedures. CHO-K1 cells expressing one of the somatostatin receptors were homogenized in ice-cold buffer with 10 mM Tris-HCl, 5 mM EDTA, 3 mM EGTA, 1 mM phenylmethylsuphonyl fluoride, pH 7.6, using Polytron PT10-35GT (Kinematica) at 18,000 rpm for 30 seconds and centrifuged at 500×g for 10 minutes. The supernatant containing the plasma membranes was centrifuged at 100,000×g for 30 minutes and the pellet was resuspended in buffer containing 20 mM glycine-glycine, 1 mM MgCl2, 250 mM sucrose, pH 7.2, for storage at −80° C.
For the hSSTR1, 2 and 5 assays, membranes and various concentrations of test compounds were incubated in 96-well plates for 60 minutes at 25° C. with 0.05 nM [^125I-Tyr^11]-SRIF-14 (for hSSTR1; PerkinElmer Life Science), 0.05 nM [^125I-Tyr]-seglitide (for hSSTR2; PerkinElmer Life Science) or 0.05 nM [^125I-Tyr]-DPhe-cyclo(Cys-Tyr-DTrp-Lys-Val-Cys)-Thr-NH2 (for hSSTR5; PerkinElmer Life Science) in 50 mM HEPES, 0.2% BSA, 0.1 mM MgCl2, pH 7.5.
The incubations were terminated by rapid filtration through GF/C glass microfiber filter plates (pre-wet with 0.3% polyethyleneimine and 0.1% BSA) using a 96-well cell harvester (Brandel). Plates were washed six times with 1 mL/well aliquots of ice-cold buffer containing 50 mM Tris buffer, pH 7.7. Specific binding is defined as the total radioligand bound minus the bound in the presence of 1000 nM SRIF-14.

hSSTR4 = target: T5, hSSTR4 (Homo sapiens, UniProt P31391); test: Somatostatin receptor radioligand binding assay, hSSTR4; settings: CHO-K1 cell membranes, [125I-Tyr11]-SRIF-14; read-out: hSSTR4 Ki (nM) ± SEM
T5 construct: expressed in transfected cells; membranes
Description: as §1, §2

[3] = cells expressing hSSTR2, calcium mobilization, read-out: hSSTR2 EC50 (nM) ± SEM
[4] = CHO-K1 cell membranes, [125I-Tyr]-seglitide, read-out: hSSTR2 Ki (nM) ± SEM

T2 sequence (P30874 whole entry): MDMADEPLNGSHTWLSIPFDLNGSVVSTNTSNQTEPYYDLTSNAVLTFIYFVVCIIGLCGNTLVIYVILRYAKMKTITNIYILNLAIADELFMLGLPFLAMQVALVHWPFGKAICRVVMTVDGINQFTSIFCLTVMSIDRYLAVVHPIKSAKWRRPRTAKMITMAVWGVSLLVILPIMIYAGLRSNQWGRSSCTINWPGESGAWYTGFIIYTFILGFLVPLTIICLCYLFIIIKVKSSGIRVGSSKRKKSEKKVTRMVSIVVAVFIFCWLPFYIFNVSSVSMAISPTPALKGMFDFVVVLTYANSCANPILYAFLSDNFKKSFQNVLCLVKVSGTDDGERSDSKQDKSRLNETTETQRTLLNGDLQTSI
T1 sequence (P32745 whole entry): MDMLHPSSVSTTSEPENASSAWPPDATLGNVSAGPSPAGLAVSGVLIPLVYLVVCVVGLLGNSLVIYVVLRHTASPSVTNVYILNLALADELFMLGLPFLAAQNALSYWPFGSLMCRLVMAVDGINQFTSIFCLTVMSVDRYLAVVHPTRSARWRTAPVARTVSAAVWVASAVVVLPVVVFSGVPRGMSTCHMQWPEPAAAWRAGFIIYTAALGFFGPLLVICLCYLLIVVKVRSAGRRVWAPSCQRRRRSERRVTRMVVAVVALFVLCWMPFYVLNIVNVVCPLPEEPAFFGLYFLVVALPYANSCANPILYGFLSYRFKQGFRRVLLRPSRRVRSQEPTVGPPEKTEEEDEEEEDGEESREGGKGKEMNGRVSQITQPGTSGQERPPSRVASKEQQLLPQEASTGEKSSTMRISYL
T3 sequence (P30872 whole entry): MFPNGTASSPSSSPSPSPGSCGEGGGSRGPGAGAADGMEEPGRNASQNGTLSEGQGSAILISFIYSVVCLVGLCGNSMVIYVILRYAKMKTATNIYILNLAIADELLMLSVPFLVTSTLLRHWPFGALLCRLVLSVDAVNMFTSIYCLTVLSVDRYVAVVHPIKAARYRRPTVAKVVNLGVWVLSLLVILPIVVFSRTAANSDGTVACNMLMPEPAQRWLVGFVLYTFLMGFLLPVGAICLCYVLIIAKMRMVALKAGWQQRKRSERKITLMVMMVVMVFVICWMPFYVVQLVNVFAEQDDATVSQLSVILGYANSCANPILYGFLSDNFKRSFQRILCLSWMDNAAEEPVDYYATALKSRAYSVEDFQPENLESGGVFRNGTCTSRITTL
T4 sequence (P35346 whole entry): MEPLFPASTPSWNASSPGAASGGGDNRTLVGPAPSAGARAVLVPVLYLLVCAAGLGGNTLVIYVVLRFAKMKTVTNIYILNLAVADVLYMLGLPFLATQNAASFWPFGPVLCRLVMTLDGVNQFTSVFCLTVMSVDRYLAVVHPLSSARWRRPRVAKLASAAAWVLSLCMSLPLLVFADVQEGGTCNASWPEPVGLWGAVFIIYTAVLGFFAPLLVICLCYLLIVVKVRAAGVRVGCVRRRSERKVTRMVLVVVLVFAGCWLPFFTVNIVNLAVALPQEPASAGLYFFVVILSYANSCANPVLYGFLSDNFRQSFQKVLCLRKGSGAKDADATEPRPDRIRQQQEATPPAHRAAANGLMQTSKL
T5 sequence (P31391 whole entry): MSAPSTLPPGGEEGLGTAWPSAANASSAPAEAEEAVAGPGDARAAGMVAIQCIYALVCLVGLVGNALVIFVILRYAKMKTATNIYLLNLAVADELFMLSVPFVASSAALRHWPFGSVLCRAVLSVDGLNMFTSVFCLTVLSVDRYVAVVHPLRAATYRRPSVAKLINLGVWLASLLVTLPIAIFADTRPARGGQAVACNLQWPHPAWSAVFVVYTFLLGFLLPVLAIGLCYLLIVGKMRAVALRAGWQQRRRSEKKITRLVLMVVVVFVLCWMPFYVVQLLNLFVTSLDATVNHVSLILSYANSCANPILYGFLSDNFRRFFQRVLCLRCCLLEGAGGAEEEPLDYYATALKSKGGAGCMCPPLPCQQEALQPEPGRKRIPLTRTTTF

`C[C@@H](O)[C@@H]1NC(=O)[C@H](CCCCN)NC(=O)[C@@H](Cc2c[nH]c3ccccc23)NC(=O)[C@H](Cc2ccncc2)NC(=O)[C@H](Cc2ccccc2)NC(=O)[C@H](CCCNC(=N)N)NC(=O)[C@H](N)CCCCNC(=O)[C@H](Cc2ccccc2)NC1=O` [Compound 1, cyclo(DLys-Arg-Phe-4Pal-DTrp-Lys-Thr-Phe)] (HELM PEPTIDE1{[dK].R.F.[O=C([C@H](Cc1ccncc1)N[*:1])[*:2]].[dW].K.T.F}$PEPTIDE1,PEPTIDE1,1:R3-8:R2$$$V2.0) gave a Ki (hSSTR3) of 16.3 ± 7.1 nM, an EC50 (hSSTR2 [1]; [3]) of 9.1 ± 3.9 nM and an Emax (hSSTR2 [1]) of 96.3 ± 5.5%. It also gave a Ki (hSSTR1) of over 1000 nM, a Ki (hSSTR5) of 0.31 ± 0.1 nM and a Ki (hSSTR2 [2]; [4]) of 0.47 ± 0.03 nM. The Ki (hSSTR4) was 76.3 ± 12.6 nM.
Compound `C[C@@H](O)[C@@H]1NC(=O)[C@H](CCCCN)NC(=O)[C@@H](Cc2c[nH]c3ccccc23)NC(=O)[C@H](Cc2ccncc2)NC(=O)[C@H](Cc2ccccc2)NC(=O)[C@H](CCCNC(=N)N)NC(=O)[C@H](NC[C@H](Cc2ccc(O)cc2)NC(=O)CCc2cn(CC(=O)N[C@H](CN[C@@H]3CCCCNC(=O)[C@H](Cc4ccccc4)NC(=O)[C@H]([C@@H](C)O)NC(=O)[C@H](CCCCN)NC(=O)[C@@H](Cc4c[nH]c5ccccc45)NC(=O)[C@H](Cc4ccncc4)NC(=O)[C@H](Cc4ccccc4)NC(=O)[C@H](CCCNC(=N)N)NC3=O)Cc3ccc(O)cc3)nn2)CCCCNC(=O)[C@H](Cc2ccccc2)NC1=O` [Compound 5, 1-[(ethan-2-oyl)-Tyr-psi(CH2NH)-cyclo(DLys-Arg-Phe-4Pal-DTrp-Lys-Thr-Phe)],4-[(propan-3-oyl)-Tyr-psi(CH2NH)-cyclo(DLys-Arg-Phe-4Pal-DTrp-Lys-Thr-Phe)]-1,2,3-triazole] has an EC50 (hSSTR2 [1]) of 3.3 nM, an Emax (hSSTR2 [1]) of 88.6 ± 1.1% and a Ki (hSSTR2 [2]) of 0.08 nM.
`C[C@@H](O)[C@@H]1NC(=O)[C@H](CCCCN)NC(=O)[C@@H](Cc2c[nH]c3ccccc23)NC(=O)[C@H](Cc2ccccc2)NC(=O)[C@H](Cc2ccccc2)NC(=O)[C@H](CCCNC(=N)N)NC(=O)[C@H](NC[C@H](Cc2ccc(O)cc2)NC(=O)CCc2cn(CC(=O)N[C@H](CN[C@@H]3CCCCNC(=O)[C@H](Cc4ccc(F)cc4)NC(=O)[C@H]([C@@H](C)O)NC(=O)[C@H](CCCCN)NC(=O)[C@@H](Cc4c[nH]c5ccccc45)NC(=O)[C@H](Cc4ccccc4)NC(=O)[C@H](Cc4ccccc4)NC(=O)[C@H](CCCNC(=N)N)NC3=O)Cc3ccc(O)cc3)nn2)CCCCNC(=O)[C@H](Cc2ccc(F)cc2)NC1=O` [Compound 6, 1-[(ethan-2-oyl)-Tyr-psi(CH2NH)-cyclo(DLys-Arg-Phe-Phe-DTrp-Lys-Thr-4FPhe)],4-[(propan-3-oyl)-Tyr-psi(CH2NH)-cyclo(DLys-Arg-Phe-Phe-DTrp-Lys-Thr-4FPhe)]-1,2,3-triazole] showed an EC50 (hSSTR2 [1]) of 74.6 ± 15.6 nM, an Emax (hSSTR2 [1]) of 93.6 ± 4.1% and a Ki (hSSTR2 [2]) of 0.38 nM.
`C[C@@H](O)[C@@H]1NC(=O)[C@H](CCCCN)NC(=O)[C@@H](Cc2c[nH]c3ccccc23)NC(=O)[C@H](Cc2ccccc2)NC(=O)[C@H](Cc2ccccc2)NC(=O)[C@H](CCCNC(=N)N)NC(=O)[C@H](NC[C@H](Cc2ccc(O)cc2)NC(=O)CCc2cn(CC(=O)N[C@H](CN[C@@H]3CCCCNC(=O)[C@H](Cc4ccc(O)cc4)NC(=O)[C@H]([C@@H](C)O)NC(=O)[C@H](CCCCN)NC(=O)[C@@H](Cc4c[nH]c5ccccc45)NC(=O)[C@H](Cc4ccccc4)NC(=O)[C@H](Cc4ccccc4)NC(=O)[C@H](CCCNC(=N)N)NC3=O)Cc3ccc(O)cc3)nn2)CCCCNC(=O)[C@H](Cc2ccc(O)cc2)NC1=O` [Compound 7, 1-[(ethan-2-oyl)-Tyr-psi(CH2NH)-cyclo(DLys-Arg-Phe-Phe-DTrp-Lys-Thr-Tyr)],4-[(propan-3-oyl)-Tyr-psi(CH2NH)-cyclo(DLys-Arg-Phe-Phe-DTrp-Lys-Thr-Tyr)]-1,2,3-triazole] gave an EC50 (hSSTR2 [1]) of 28.5 ± 11.5 nM, an Emax (hSSTR2 [1]) of 97.4 ± 1.2% and a Ki (hSSTR2 [2]) of 0.17 nM.
`C[C@@H](O)[C@@H]1NC(=O)[C@H](CCCCN)NC(=O)[C@@H](Cc2c[nH]c3ccccc23)NC(=O)[C@H](Cc2ccncc2)NC(=O)[C@H](Cc2ccccc2)NC(=O)[C@H](CCCNC(=N)N)NC(=O)[C@H](NC[C@@H](N)Cc2ccc(O)cc2)CCCCNC(=O)[C@H](Cc2ccccc2)NC1=O` [Compound 21, Tyr-psi(CH2NH)-cyclo(DLys-Arg-Phe-4Pal-DTrp-Lys-Thr-Phe)] was tested, and the Ki (hSSTR3) was 5 nM, the EC50 (hSSTR2 [1]; [3]) was 4.4 ± 3.7 nM and the Emax (hSSTR2 [1]) was 103 ± 0.2%. For the same compound, the Ki (hSSTR1) was 271 ± 160 nM, the Ki (hSSTR5) was 0.32 nM and the Ki (hSSTR2 [2]; [4]) was 0.02 ± 0.02 nM. It also gave a Ki (hSSTR4) of 112 ± 18.6 nM.
